Where “and” joins values, the source holds several entries; their conditions need not be identical. Identical values can stand only once.
Target: SARS-CoV-2 3CL protease (Severe acute respiratory syndrome coronavirus 2, UniProt P0DTD1)
Test: biochemical
Conditions: IC50

| Structure (SMILES) | IC50 |
| --- | --- |
| O=c1[nH]cccc1Cn1c(=O)nc(Nc2cc3nccnc3cc2Cl)n(Cc2cc(F)c(F)c(F)c2)c1=O [Compound I-0098] | < 100 nM |
| CCNC(=O)Cn1cc2cc(Nc3nc(=O)n(Cc4ncn(C)n4)c(=O)n3Cc3cc(Cl)c(F)cc3F)c(Cl)cc2n1 [II-0151] | < 100 nM |
| CNC(=O)c1c[nH]c(=O)c(Cn2c(=O)nc(Nc3cc4cn(C)nc4cc3Cl)n(Cc3cc(F)c(F)c(F)c3)c2=O)c1 [Compound I-0477] | < 100 nM |
| N#Cc1cc(Cn2c(Nc3ccc4c(c3)CCO4)nc(=O)n(-c3cncc(CO)c3)c2=O)ccc1F [Compound I-0356] | < 100 nM |
| COc1ccc(Nc2nc(=O)n(Cc3cn(-c4ccccc4)cn3)c(=O)n2Cc2cc(F)c(F)c(F)c2)cc1 [Compound I-0412] | 5100 nM and 1000 to 10000 nM |
| CC(=O)N1CC(n2cc3cc(Nc4nc(=O)n(-c5cncc6ccccc56)c(=O)n4Cc4cc(F)c(F)c(F)c4)c(Cl)cc3n2)C1 [Compound I-0289] | < 100 nM |
| COc1ccc(Nc2nc(=O)n(Cc3ccc(C(=O)NCCN(C)C)[nH]c3=O)c(=O)n2Cc2cc(F)c(F)c(F)c2)cc1 [Compound I-0074] | < 100 nM |
| CNc1cncc(-n2c(=O)nc(Nc3cc4c(cc3Cl)OCC4)n(Cc3cc(F)c(F)cc3F)c2=O)c1 [II-0613] | < 100 nM |
| Cn1cc2cc(Nc3nc(=O)n(Cc4cc5ccsc5[nH]c4=O)c(=O)n3Cc3ccc(F)c(C#N)c3)ccc2n1 [II-0009] | < 100 nM |
| COC(=O)c1cccc2c1CN(c1nc(=O)n(Cc3ccc[nH]c3=O)c(=O)n1Cc1cc(F)c(F)c(F)c1)C2 [II-0216] | < 100 nM |
| O=c1[nH]cccc1Cn1c(=O)nc(Nc2ccc(-c3cocn3)cc2Cl)n(Cc2cc(F)c(F)c(F)c2)c1=O [Compound I-0396] | 3100 nM and 1000 to 10000 nM |
| Cn1cnc(Cn2c(=O)nc(NC34CC(Nc5ncc(C(F)(F)F)cn5)(C3)C4)n(Cc3cc(F)c(F)c(F)c3)c2=O)n1 [II-0470] | < 100 nM |
| Cc1nc2cc(Cl)c(Nc3nc(=O)n(Cc4ccc[nH]c4=O)c(=O)n3Cc3cc(F)c(F)c(F)c3)cc2n1CC(C)(C)O [Compound I-0445] | < 100 nM |
| CNc1cncc(-n2c(=O)nc(Nc3ccc4c(c3)CCO4)n(Cc3cc(F)c(F)cc3F)c2=O)c1 [II-0612] | < 100 nM |
| Cn1cnc2cc(Cl)c(Nc3nc(=O)n(Cc4ccc[nH]c4=O)c(=O)n3Cc3cc(F)c(F)c(F)c3)cc2c1=O [Compound I-0097] | < 100 nM |
| COCCOc1ccc(Nc2nc(=O)n(Cc3ccc[nH]c3=O)c(=O)n2Cc2cc(F)c(F)c(F)c2)c(Cl)c1 [Compound I-0096] | < 100 nM |
| COc1cnc(NC23CC(Nc4nc(=O)n(Cc5ccc[nH]c5=O)c(=O)n4Cc4cc(F)c(F)c(F)c4)(C2)C3)nc1 [II-0441] | < 100 nM |
| CCOC(=O)c1cc(F)c(F)cc1Cn1c(Nc2cc3cn(C)nc3cc2Cl)nc(=O)n(Cc2ncn(C)n2)c1=O [II-0636] | < 100 nM |
| Cn1cnc(Cn2c(=O)nc(Nc3cc4cn([C@H]5CC[C@H](N)CC5)nc4cc3Cl)n(Cc3cc(Cl)c(F)cc3F)c2=O)n1 [II-0531] | < 100 nM |
| Cn1cnc(Cn2c(=O)nc(Nc3cc4cn(C)nc4cc3Cl)n(Cc3cc(Cl)ccc3O)c2=O)n1 [II-0428] | 840 nM |
| Cn1cc(Nc2nc(=O)n(Cc3ccc[nH]c3=O)c(=O)n2Cc2cc(F)c(F)c(F)c2)c(Cl)cc1=O [Compound I-0244] | < 100 nM |
| Cn1cnc(Cn2c(=O)nc(NC34CC(Nc5ncc6ccccc6n5)(C3)C4)n(Cc3cc(F)c(F)c(F)c3)c2=O)n1 [II-0472] | < 100 nM |

| Structure (SMILES) | IC50 |
| --- | --- |
| CN(C)C(=O)c1ccc(Cn2c(=O)nc(Nc3cc4cn(C)nc4cc3Cl)n(Cc3cc(F)c(F)c(F)c3)c2=O)c(=O)[nH]1 [Compound I-0063] | < 100 nM |
| Cc1nc2cc(Cl)c(Nc3nc(=O)n(Cc4ccc[nH]c4=O)c(=O)n3Cc3ccc(F)c(C#N)c3)cc2n1C [Compound I-0266] | < 100 nM |
| Cn1cnc(Cn2c(=O)nc(Nc3cc4cn(C)nc4cc3Cl)n(Cc3cccc4cccnc34)c2=O)n1 [II-0224] | 1900 nM |
| COc1ccc(Nc2cc(=O)n(Cc3ccc[nH]c3=O)c(=O)n2Cc2cc(F)c(F)c(F)c2)cc1 [Compound I-0326] | 65 nM |
| O=C(O)COc1ccc(Nc2nc(=O)n(Cc3ccc[nH]c3=O)c(=O)n2Cc2cc(F)c(F)c(F)c2)c(Cl)c1 [Compound I-0464] | < 100 nM |
| O=c1[nH]cccc1Cn1c(=O)nc(NC23CC(Nc4ncccn4)(C2)C3)n(Cc2cc(F)c(F)c(F)c2)c1=O [II-0443] | < 100 nM |
| COc1ccc(Nc2nc(=O)n(Cc3ccc(C(=O)N(C)C)[nH]c3=O)c(=O)n2Cc2cc(F)c(F)c(F)c2)cc1 [Compound I-0072] | < 100 nM |
| CNC(=O)Cn1c(=O)nc(Nc2cc3sc(C)nc3cc2C)n(Cc2cc(F)c(F)c(F)c2)c1=O [Compound I-0479] | 1000 to 10000 nM |
| CCc1nc2cc(Cl)c(Nc3nc(=O)n(Cc4ccc[nH]c4=O)c(=O)n3Cc3cc(F)c(F)c(F)c3)cc2n1C [Compound I-0399] | < 100 nM |
| O=c1[nH]cccc1Cn1c(=O)nc(NC2CCCC2)n(Cc2cc(F)c(F)c(F)c2)c1=O [Compound I-0204] | 610 nM and 100 to 1000 nM |
| CC(=O)N1CC(n2cc3cc(Nc4nc(=O)n(Cc5ccc[nH]c5=O)c(=O)n4Cc4cc(F)c(F)c(F)c4)c(Cl)cc3n2)C1 [Compound I-0448] | < 100 nM |
| Cn1cnc(Cn2c(=O)nc(Nc3cc4cn(CC(F)F)nc4cc3Cl)n(Cc3cc(Cl)c(F)cn3)c2=O)n1 [II-0540] | < 100 nM |
| CCNC(=O)Cn1cc2cc(Nc3nc(=O)n(Cc4ncn(C)n4)c(=O)n3Cc3cc(F)c(F)c(Cl)c3)c(Cl)cc2n1 [II-0150] | < 100 nM |
| CNC(=O)Cn1c(=O)[nH]/c(=N\c2cc3cn(C)nc3cc2Cl)n(Cc2cc(F)c(F)c(F)c2)c1=O [II-0328] | < 100 nM |
| CS(=O)(=O)Nc1ccc(Nc2nc(=O)n(Cc3ccc[nH]c3=O)c(=O)n2Cc2cc(F)c(F)c(F)c2)cc1 [Compound I-0151] | 970 nM and 100 to 1000 nM |
| COc1ccc(Nc2nc(=O)n(CC3(C)COC3)c(=O)n2Cc2cc(F)c(F)c(F)c2)cc1 [II-0274] | 3000 nM |
| Cn1cnc(Cn2c(=O)nc(Nc3cc4cn(CC(=O)N5CCC5)nc4cc3Cl)n(Cc3cc(Cl)c(F)cc3F)c2=O)n1 [II-0149] | < 100 nM |
| CCc1c(F)cc(Cl)cc1Cn1c(Nc2cc3cn(C)nc3cc2Cl)nc(=O)n(Cc2ncn(C)n2)c1=O [II-0639] | < 100 nM |
| COCCN(C)C(=O)Cn1cc2cc(Nc3nc(=O)n(Cc4ncn(C)n4)c(=O)n3Cc3cc(Cl)c(F)cc3F)c(Cl)cc2n1 [II-0135] | < 100 nM |
| CC(=O)NCCn1cc2cc(Nc3nc(=O)n(Cc4ccc[nH]c4=O)c(=O)n3Cc3cc(F)c(F)c(F)c3)c(Cl)cc2n1 [Compound I-0449] | < 100 nM |
| Cc1cncc(-n2c(=O)nc(Nc3cc(C)c(N=S(C)(C)=O)cc3Cl)n(Cc3cc(Cl)ccc3C)c2=O)c1 [II-0629] | < 100 nM |
| Cc1cc(Oc2ccc(Nc3nc(=O)n(Cc4ccc[nH]c4=O)c(=O)n3Cc3cc(F)c(F)c(F)c3)cc2)no1 [Compound I-0048] | 440 nM and 100 to 1000 nM |

| Structure (SMILES) | IC50 |
| --- | --- |
| COc1ccc(Nc2nc(=O)n(Cc3nc(Br)c[nH]c3=O)c(=O)n2Cc2cc(F)c(F)c(F)c2)cc1 [Compound I-0106] | 1900 nM and 1000 to 10000 nM |
| O=c1[nH]cccc1Cn1c(=O)nc(NC23CC(Nc4nc(Cl)cc(Cl)n4)(C2)C3)n(Cc2cc(F)c(F)c(F)c2)c1=O [II-0622] | < 100 nM |
| Cn1cnc(Cn2c(=O)cc(Nc3cc4cn(CC(F)F)nc4cc3Cl)n(Cc3ccc(F)c(C#N)c3)c2=O)n1 [II-0432] | < 100 nM |
| CNC(=O)CCn1c(=O)nc(Nc2cc3cn(C)nc3cc2Cl)n(Cc2cc(F)c(F)cc2F)c1=O [II-0643] | 1000 nM |
| Cc1nc2cc(Cl)c(Nc3nc(=O)n(Cc4ccc[nH]c4=O)c(=O)n3Cc3cc(F)c(F)c(F)c3)cc2n1CCCS(C)(=O)=O [Compound I-0446] | < 100 nM |
| NC(=O)c1cnc2[nH]c(=O)c(Cn3c(=O)nc(Nc4ccc5c(c4)CCO5)n(Cc4cc(F)c(F)c(F)c4)c3=O)cc2c1 [II-0317] | < 100 nM |
| Cn1cnc(Cn2c(=O)nc(Nc3cc4cn(CC(=O)N5CCC5)nc4cc3Cl)n(Cc3cc(F)c(F)c(Cl)c3)c2=O)n1 [II-0153] | < 100 nM |
| COc1ccc(Nc2nc(=O)n(Cc3c[nH]c(=S)[nH]c3=O)c(=O)n2Cc2cc(F)c(F)c(F)c2)cc1 [Compound I-0103] | < 100 nM |
| Cc1cncc(-n2c(=O)nc(Nc3cc4cn(C)nc4cc3Cl)n(C[C@@H]3CCCN3C(=O)CNC(=O)C(F)(F)F)c2=O)c1 [II-0086] | 3400 nM |
| Cn1cnc(Cn2c(=O)nc(Nc3cc4cn(C)nc4cc3Cl)n(Cc3cc(F)c(F)cc3C(F)(F)F)c2=O)n1 [II-0634] | < 100 nM |
| COc1ccc(Nc2nc(=O)n(Cc3cc4ccncc4[nH]c3=O)c(=O)n2Cc2cc(F)c(F)c(F)c2)cc1 [Compound I-0080] | < 100 nM |
| CNC(=O)c1ccc(Nc2nc(=O)n(Cc3ccc[nH]c3=O)c(=O)n2Cc2cc(F)c(F)c(F)c2)cc1 [Compound I-0149] | 3500 nM and 1000 to 10000 nM |
| Cn1cnc(Cn2c(=O)nc(Nc3cc4cn(C)nc4cc3Cl)n(CC3CCCC3)c2=O)n1 [II-0605] | 1000 to 10000 nM |
| Cc1cncc(-n2c(=O)nc(Nc3ccc(N=S(C)(C)=O)cc3OC(F)(F)F)n(Cc3cc(Cl)ccc3C)c2=O)c1 [II-0632] | < 100 nM |
| CN1CC[C@H](n2cc3cc(Nc4nc(=O)n(Cc5ncn(C)n5)c(=O)n4Cc4cc(F)c(F)cc4F)c(Cl)cc3n2)C1=O [II-0465] | < 100 nM |
| COc1ccnc(NC23CC(Nc4nc(=O)n(Cc5ncn(C)n5)c(=O)n4Cc4cc(F)c(F)c(F)c4)(C2)C3)n1 [II-0113] | < 100 nM |
| CC(=O)Nc1nc2ccc(Nc3nc(=O)n(Cc4ccc[nH]c4=O)c(=O)n3Cc3cc(F)c(F)c(F)c3)cc2s1 [Compound I-0458] | < 100 nM |
| Cc1cncc(-n2c(=O)nc(Nc3ccc(N=S4(=O)CCCC4)c(Cl)c3)n(Cc3cc(Cl)ccc3C)c2=O)c1 [II-0615] | < 100 nM |
| CNC(=O)c1c[nH]c(=O)c(Cn2c(=O)nc(Nc3ccc(OC)cc3)n(Cc3cc(F)c(F)c(F)c3)c2=O)c1 [Compound I-0087] | < 100 nM |
| O=c1[nH]cccc1Cn1c(=O)nc(NC23CC(Nc4ncc(C(F)(F)F)cn4)(C2)C3)n(Cc2cc(F)c(F)c(F)c2)c1=O [II-0456] | < 100 nM |
| Cc1nc2cc(Cl)c(Nc3nc(=O)n(Cc4ccc[nH]c4=O)c(=O)n3Cc3cc(F)c(F)cc3F)cc2n1C [Compound I-0006] | < 100 nM |
| O=c1[nH]cccc1Cn1c(=O)nc(NC2CCc3[nH]ncc3C2)n(Cc2cc(F)c(F)c(F)c2)c1=O (racemic) [Compound I-0208] | 230 nM and 100 to 1000 nM |

Source: US12559474B2, “Triazine derivatives having virus replication inhibitory activity and pharmaceutical composition comprising the same” (priority 2021, dated 2026)
